Laboratory results reported in ChEMBL document CHEMBL2034966, “Bidirectional fluorescence properties of pyrene-based peroxisome proliferator-activated receptor (PPAR) α/δ dual agonist” (Bioorg Med Chem, 2012).
Changes are numbered by the printed parent chain. Active and inactive are the calls of the source. No cut-off for these calls is given here.

Columns and labels:
[1] = target: T1, Peroxisome proliferator-activated receptor alpha (Homo sapiens) (UniProt Q07869); assay: Binding affinity to N-terminal His-tagged human PPARalpha ligand binding domain assessed as increase in fluorescence at 500 nM by fluorometry
T1 sequence (whole entry): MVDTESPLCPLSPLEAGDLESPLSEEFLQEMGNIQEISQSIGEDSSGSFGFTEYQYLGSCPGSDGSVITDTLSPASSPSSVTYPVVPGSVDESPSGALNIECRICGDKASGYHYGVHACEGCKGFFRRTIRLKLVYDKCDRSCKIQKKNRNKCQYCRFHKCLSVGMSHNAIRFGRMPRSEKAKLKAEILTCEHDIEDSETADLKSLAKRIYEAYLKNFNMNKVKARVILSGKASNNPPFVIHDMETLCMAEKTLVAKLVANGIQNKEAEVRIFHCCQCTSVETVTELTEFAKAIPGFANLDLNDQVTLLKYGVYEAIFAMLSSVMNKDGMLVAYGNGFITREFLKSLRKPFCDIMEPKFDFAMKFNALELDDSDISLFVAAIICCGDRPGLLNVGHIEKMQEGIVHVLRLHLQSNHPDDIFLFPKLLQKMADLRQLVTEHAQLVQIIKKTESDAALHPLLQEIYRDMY

[2] = target: T2, Peroxisome proliferator-activated receptor delta (Homo sapiens) (UniProt Q03181); assay: Binding affinity to N-terminal His-tagged human PPARdelta ligand binding domain assessed as decrease in fluorescence at 500 nM by fluorometry
T2 sequence (whole entry): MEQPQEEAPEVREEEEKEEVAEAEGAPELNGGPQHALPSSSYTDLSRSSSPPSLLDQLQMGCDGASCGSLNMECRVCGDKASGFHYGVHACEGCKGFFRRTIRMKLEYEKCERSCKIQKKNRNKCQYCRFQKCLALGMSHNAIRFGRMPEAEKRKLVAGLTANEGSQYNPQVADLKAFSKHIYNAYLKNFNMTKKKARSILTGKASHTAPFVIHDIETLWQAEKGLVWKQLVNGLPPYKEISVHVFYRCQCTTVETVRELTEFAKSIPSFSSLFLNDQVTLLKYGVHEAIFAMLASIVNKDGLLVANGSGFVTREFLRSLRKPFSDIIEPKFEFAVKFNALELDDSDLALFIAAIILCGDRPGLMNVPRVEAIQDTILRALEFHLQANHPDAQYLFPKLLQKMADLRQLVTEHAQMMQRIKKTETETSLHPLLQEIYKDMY

[3] = system: T3, Peroxisome proliferator-activated receptor alpha (Homo sapiens), Q07869 [L258W]; assay: Binding affinity to N-terminal His-tagged human PPARalpha L258W mutant ligand binding domain assessed as increase in fluorescence at 500 nM by fluorometry
T3 sequence (whole entry): T1 sequence (whole entry) with L258W

Homo sapiens [4] = species: Homo sapiens; assay: Binding affinity to N-terminal His-tagged human PPARdelta W264L mutant ligand binding domain assessed as increase in fluorescence at 500 nM by fluorometry
Homo sapiens [5] = species: Homo sapiens; assay: Binding affinity to N-terminal His-tagged human PPARdelta W225A mutant ligand binding domain assessed as decrease in fluorescence at 500 nM by fluorometry
Homo sapiens [6] = species: Homo sapiens; assay: Binding affinity to N-terminal His-tagged human PPARdelta W264A mutant ligand binding domain assessed as increase in fluorescence at 500 nM by fluorometry
Homo sapiens [7] = species: Homo sapiens; assay: Binding affinity to N-terminal His-tagged human PPARdelta W256A mutant ligand binding domain assessed as increase in fluorescence at 500 nM by fluorometry

SMILES: CC[C@@H](Cc1ccc(OC)c(CNC(=O)c2ccc3ccc4cccc5ccc2c3c45)c1)C(=O)O
- Activity [1]: Active
- Activity [2]: Active
- Activity [3]: inactive
- Activity (Homo sapiens [4]): Active
- Activity (Homo sapiens [5]): Active
- Activity (Homo sapiens [6]): Active
- Activity (Homo sapiens [7]): inactive
